The source of these data is patent US20220362262A1, “METHODS AND COMPOSITIONS FOR TISSUE REGENERATION” (Institute of Zoology, Chinese Academy of Sciences, priority 2019, published 2022).

Assay [1] deals with fibrosis in TA muscle, liver, skin and heart of 2-year old mice. Description: Aging-induced fibrosis and fibrotic precursors in 2-year old mice after daily injection. Type of assay: in vivo. Conditions: for relative changes in the % fibrotic area (Masson trichrome staining) / relative changes in the percentage fraction of fibrotic precursors (PGDFRA-positive and Ki67-positive): 7 days post-injection, 2-year old mice. From the text:
(§1) Some tissues were flash frozen for cryosectioning.

A further assay relates to cryoinjured TA muscle. Description: Muscle regeneration after cryoinjury: regenerative index, myogenic proteins, myofiber diameter, grip strength after bolus injection. Type of assay: in vivo, mice. Conditions: for regenerative index (fraction of nuclei in embryonic MHC-positive myofibers): single bolus, combinations: prostaglandin at day 0, rosiglitazone at day 1, relative to DMSO vehicle.
Source text: as §1

The test system of assay [2] is Ki67-positive proliferative progenitor cells in liver, heart, skin, hair follicles. Description: Ki67+ progenitor cells in non-skeletal muscle tissues without injury, 2 days after intra-peritoneal treprostinil. Format: in vivo, mice.
Source text: as §1

Assay [3] deals with muscle stem cells and myoblasts in gastrocnemius, quadriceps and TA muscle. Description: Stem cell and myoblast activation in skeletal muscles without injury, immunofluorescence 2 days after single bolus. Format: in vivo, mice. Conditions: for fraction of proliferative muscle stem cells (Pax7-positive Ki67-positive cells) / total pool of muscle stem cells (Pax7-positive cells) / total pool of proliferative cells (Ki67-positive cells): without injury.
Source text: as §1

Assay [4] deals with pure primary human myoblasts. Kind of assay: Pure primary human myoblasts treated with PGI2-related drugs (Western blot, qRT-PCR). Conditions: pure primary human myoblasts, relative to DMSO. Format: cell-based. Background: A western blot detects proteins with antibodies after separation by electrophoresis.
Setting [5] is: TA muscle, 2 days after intramuscular single bolus, with or without HGF.
The mark [6] stands for this setting: gastrocnemius muscle, 2 days after intra-peritoneal single bolus.
The mark [7] stands for this setting: gastrocnemius muscle, 2 days after intramuscular single bolus, PPARD drugs.
[8] abbreviates: gastrocnemius muscle, 2 days after intraperitoneal single bolus, with or without fenofibrate or WY-14643.
The mark [9] stands for this setting: quadriceps muscles, 2 days after intra-peritoneal single bolus.

Entries after “also recorded” stand apart in the source; their conditions may differ.

Regarding `CCCCC[C@H](O)CC[C@@H]1[C@H]2Cc3cccc(OCC(=O)O)c3C[C@H]2C[C@H]1O` [treprostinil], the “relative changes in the % fibrotic area (Masson trichrome staining)” value is “partially reverse the aged muscle fibrosis; also recorded: significant reversal of aging-induced fibrosis” in assay [1] (TA muscle, daily injection); “partially reverse the aged cardiac fibrosis” in assay [1] (heart tissue, daily injection); “partially reverse the aged liver fibrosis” in assay [1] (liver tissue, daily injection); “partially reverse the aged skin fibrosis” in assay [1] (skin tissue, daily injection). Further, the “relative changes in the percentage fraction of fibrotic precursors (PGDFRA-positive and Ki67-positive)” value is recorded as “partially suppress the aged muscle fibrotic precursors” in assay [1] (TA muscle, daily injection); “partially suppress the aged cardiac fibrotic precursors” in assay [1] (heart tissue, daily injection); “partially suppress the aged liver fibrotic precursors” in assay [1] (liver tissue, daily injection); “partially suppress the aged skin fibrotic precursors” in assay [1] (skin tissue, daily injection). In addition, the “PDGFRA+ Ki67+ fibrotic precursor numbers in multiple non-skeletal muscle tissues” value in assay [1] (liver, skin and heart, 2-year-old mice) is listed as “suppress”. Besides, the “aging-induced fibrosis (fibrotic area) in multiple non-skeletal muscle tissues” value in assay [1] (liver, skin and heart, daily injection, 2-year-old mice) was “significant reversal of aging-induced fibrosis”. For the same compound, the grip strength result in the assay with cryoinjured TA muscle (14 days post-injury, 6-week old mice, prostaglandin at 0 h, rosiglitazone at 24 h post-injury) was “partially restore grip strength”. In the assay on cryoinjured TA muscle (TA muscle 6 days post-cryoinjury, treprostinil at day 0, rosiglitazone at day 1 in the combination), the “Pax7, MyoD, MyoG and Myh3 protein expression (Western blot densitometry)” value was “significantly increase; also recorded: could also increase”. The “hypertrophic growth (myofiber cross-sectional Feret diameters)” value with cryoinjured TA muscle (TA muscle 6.5 days post-injury, prostaglandin at day 0, rosiglitazone at day 1) is “increase hypertrophic growth”. Also, the “regenerative index (fraction of nuclei in embryonic MHC-positive myofibers)” value in the assay with cryoinjured TA muscle (TA muscle 6.5 days post-injury) was “significantly increase muscle regeneration”. The “total pool of proliferative progenitor cells (Ki67-positive cells)” value is given as “significantly increased” in assay [2] (endoderm-derived liver tissue); “increase the total pool of Ki67+ progenitor cells” in assay [2] (endoderm-derived liver tissue, listed as Treprostinil); “significantly increased; also recorded: increase the total pool of Ki67+ progenitor cells” in assay [2] (mesoderm-derived heart and cardiac muscle tissue); “significantly increased; also recorded: increase” in assay [2] (neuroectoderm-derived skin tissue); “significantly increased; also recorded: increase” in assay [2] (skin tissue's telogen hair follicles). The “percentage fraction of proliferative muscle stem cells (Pax7-positive Ki67-positive cells)” value is on record as “significantly increased; also recorded: could increase” in assay [3] (setting [5]) and “significantly increased” in assay [3] (setting [7]). The “percentage fraction of proliferative myoblasts (MyoD-positive Ki67-positive cells)” value in assay [3] (setting [5]) was “slightly increased; also recorded: could increase”; in assay [3] (setting [7]), “slightly increased”; in assay [3] (setting [8]) it was “significantly increased”. The “fraction of proliferative muscle stem cells (Pax7-positive Ki67-positive cells)” value is on record as “significantly increased” in assay [3] (TA muscle, 2 days after intramuscular single bolus); “significantly increased” in assay [3] (setting [6]); “significantly increased” in assay [3] (setting [9]). The “total pool of muscle stem cells (Pax7-positive cells)” value in assay [3] (setting [6]) and in assay [3] (setting [9]) was “significantly increased” each time. Also, the “total pool of proliferative cells (Ki67-positive cells)” value in assay [3] (setting [6]) and in assay [3] (setting [9]) was “significantly increased” each time. In addition, the “percentage fraction of myoblasts (MyoD-positive cells)” value in assay [3] (setting [8]) is on record as “significantly increased”. The “H3K9ac and MyoD protein (Western blot)” value in assay [4] is given as “followed the same pattern of regulation as PPARG”. For the same compound, the “PPARG protein levels (Western blot)” value in assay [4] is “stabilize and/or upregulate”.

As for `O=C(NCCS(=O)(=O)c1ccc(C(F)(F)F)cn1)c1ccc(Cl)cc1` [GSK3787], in the assay on cryoinjured TA muscle (TA muscle 6.5 days post-injury), the “regenerative index (fraction of nuclei in embryonic MHC-positive myofibers)” value is recorded as “not”. Also, in assay [3] (setting [7]), the “percentage fraction of proliferative muscle stem cells (Pax7-positive Ki67-positive cells)” value is reported as “no effect” and the “percentage fraction of proliferative myoblasts (MyoD-positive Ki67-positive cells)” value was “slightly increased”.

For the compound `CC(C)OC(=O)C(C)(C)Oc1ccc(C(=O)c2ccc(Cl)cc2)cc1` [fenofibrate], in assay [3] (setting [8]), the “percentage fraction of myoblasts (MyoD-positive cells)” value is listed as “no effect” and the “percentage fraction of proliferative myoblasts (MyoD-positive Ki67-positive cells)” value is reported as “no effect”.

As for HGF: hepatocyte growth factor, in assay [3] (setting [5]), the “percentage fraction of proliferative muscle stem cells (Pax7-positive Ki67-positive cells)” value was “significantly increased; also recorded: could increase” and the “percentage fraction of proliferative myoblasts (MyoD-positive Ki67-positive cells)” value is given as “slightly increased; also recorded: could increase”.

For `CCCCC[C@@H](/C=C/[C@H]1[C@H](CCCCCCC(=O)O)[C@H]2C[C@@H]1OO2)OO` [PGG1], the “regenerative index (fraction of nuclei in embryonic MHC-positive myofibers)” value in the assay with cryoinjured TA muscle (TA muscle 6.5 days post-injury) is listed as “no significant effect; also recorded: did not cause significant changes”.

On to `Cc1cc(SCc2sc(-c3ccc(C(F)(F)F)c(F)c3)nc2C)ccc1OCC(=O)O` [GW0742], for which, in the assay with cryoinjured TA muscle (TA muscle 6.5 days post-injury), the “regenerative index (fraction of nuclei in embryonic MHC-positive myofibers)” value is on record as “significantly decrease muscle regeneration”. Also, in assay [3] (setting [7]), the “percentage fraction of proliferative muscle stem cells (Pax7-positive Ki67-positive cells)” value is recorded as “surprisingly decreased” and the “percentage fraction of proliferative myoblasts (MyoD-positive Ki67-positive cells)” value was “no effect”.

Regarding `CCCCC[C@H](O)/C=C/[C@H]1C(=O)C[C@H](O)[C@@H]1C/C=C\CCCC(=O)O` [PGD2, prostaglandin D2], the “regenerative index (fraction of nuclei in embryonic MHC-positive myofibers)” value in the assay on cryoinjured TA muscle (TA muscle 6.5 days post-injury) is on record as “slightly but significantly increase muscle regeneration; also recorded: slightly increased regeneration”.

Take `CCCCC[C@H](O)/C=C/[C@@H]1[C@@H](CCCCCCC(=O)O)[C@@H](O)C[C@H]1O` [PGF1a]: in the assay with cryoinjured TA muscle (TA muscle 6.5 days post-injury), the “regenerative index (fraction of nuclei in embryonic MHC-positive myofibers)” value was “significantly decrease muscle regeneration; also recorded: slightly decreased regeneration”.
